{
  "source": "BindingDB's records for patent US9175357",
  "about": "(University of South Carolina, 2015)",
  "molecular_target": "Serine/threonine-protein kinase PLK1 (Homo sapiens, UniProt P53350)",
  "sequence (P53350 whole entry)": "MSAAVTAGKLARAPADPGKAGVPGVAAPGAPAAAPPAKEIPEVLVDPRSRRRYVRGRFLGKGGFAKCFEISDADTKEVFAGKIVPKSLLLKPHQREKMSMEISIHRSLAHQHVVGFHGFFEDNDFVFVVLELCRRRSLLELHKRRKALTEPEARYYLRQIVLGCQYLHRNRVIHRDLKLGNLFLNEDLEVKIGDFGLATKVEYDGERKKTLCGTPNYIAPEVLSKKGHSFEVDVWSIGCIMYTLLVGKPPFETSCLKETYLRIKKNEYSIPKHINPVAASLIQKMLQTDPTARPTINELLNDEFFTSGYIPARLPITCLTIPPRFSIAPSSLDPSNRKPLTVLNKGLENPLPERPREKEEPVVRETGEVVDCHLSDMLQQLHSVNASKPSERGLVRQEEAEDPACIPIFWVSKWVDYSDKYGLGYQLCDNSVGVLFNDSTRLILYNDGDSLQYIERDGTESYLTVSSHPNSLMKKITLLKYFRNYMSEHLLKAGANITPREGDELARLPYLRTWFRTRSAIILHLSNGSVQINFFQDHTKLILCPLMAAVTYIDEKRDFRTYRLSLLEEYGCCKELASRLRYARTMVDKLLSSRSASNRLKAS",
  "assay": "Fluorescent Polarization Binding Assay",
  "conditions": "pH 8; 25 °C",
  "data": [
    {"smiles": "CNC(=O)c1cc(CCCN2CCOCC2)n(-c2ccccc2)c1C", "note": "[US9175357, 5600]", "values": [
      {"measurement": "IC50", "result": 550, "unit": "µM"}
    ]}
  ]
}
